Measured values reported in patent publication US20110028447A1, “INDAZOLE DERIVATIVES” (Pfizer Inc., priority 2008, published 2011).
Like-named read-outs stand apart in the source and are kept apart here.

Assays:
human CB1 receptor [1] = target: T1, human CB1 receptor (Homo sapiens, UniProt P21554); assay: [35S] GTPγS binding on membranes of CHO cells expressing the human CB1 receptor (agonism); assay type: biochemical; set-up: expressed in transfected cells; membrane preparation
Outline: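 Membranes from human CB1-expressing CHO cells (5 μg/well) incubated with test compound and [35S]GTPγS in 50 mM Tris pH 7.4, 100 mM NaCl, 3 mM MgCl2, 0.2 mM EGTA, 0.04% BSA for 45 min at 37 °C. Bound label collected by filtration, scintillation counted; EC50 from curve fits.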

human CB1 receptor [2] = target: T1, human CB1 receptor; assay: Human CB1 receptor binding, [3H] CP-55,940 displacement on HEK cell membranes; set-up: expressed in transfected cells; host or cells: HEK cells, doxycycline-induced; membrane preparation
Outline: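 Membranes from doxycycline-induced HEK cells expressing human CB1 incubated 60 min at room temperature with [3H] CP-55,940 (final […]) in 50 mM Tris pH 7.4, 100 mM NaCl, 3 mM MgCl2, 0.2 mM EGTA, 0.04% BSA. Nonspecific binding defined with 50 μM WIN-55,212-2; filtration and scintillation counting gave EC50 and Ki.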

[3] = GTPγS EC50, human CB1, CHO cell membranes
[4] = human CB1, CHO cell membranes, read-out: GTPγS EC50

T1 sequence (P21554 whole entry): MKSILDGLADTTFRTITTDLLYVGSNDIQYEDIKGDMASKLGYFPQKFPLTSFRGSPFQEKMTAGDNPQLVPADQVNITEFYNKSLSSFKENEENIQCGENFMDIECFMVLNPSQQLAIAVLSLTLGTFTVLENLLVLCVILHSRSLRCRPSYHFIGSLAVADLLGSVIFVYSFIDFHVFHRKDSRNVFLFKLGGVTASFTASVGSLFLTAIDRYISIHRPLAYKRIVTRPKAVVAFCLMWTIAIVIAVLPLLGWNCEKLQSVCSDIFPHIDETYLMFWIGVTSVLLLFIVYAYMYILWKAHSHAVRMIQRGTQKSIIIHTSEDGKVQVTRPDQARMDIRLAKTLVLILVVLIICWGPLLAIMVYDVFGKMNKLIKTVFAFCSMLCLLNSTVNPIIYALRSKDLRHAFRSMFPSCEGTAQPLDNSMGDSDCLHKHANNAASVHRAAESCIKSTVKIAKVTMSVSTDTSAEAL

Row | Compound | EC50 (human CB1 receptor [1]; [3]) | Ki (human CB1 receptor [2]; CB1 Ki) | EC50 (human CB1 receptor [1]; [4]) | Ki (human CB1 receptor [2]; read-out: CB1 Ki)
1 | CC(C)(C)[C@H](NC(=O)c1nn(Cc2ccc(C#N)cc2F)c2c(F)cccc12)C(=O)NC1CC1 [Example 373] | 11.6 nM | 14.6 nM | – | –
2 | CC(C)(C)[C@H](NC(=O)c1nn(Cc2ccc(C#N)cc2F)c2c(F)c(F)ccc12)C(=O)NC1CC1 [Example 374] | 12.5 nM | 7.33 nM | – | –
3 | CC(C)(C)[C@H](NC(=O)c1nn(Cc2ccc(C#N)cc2F)c2c(F)cccc12)C(=O)NCc1nnc(C(N)=O)o1 [Example 375] | – | – | 31.4 nM | 7.92 nM
4 | CC(C)(C)[C@H](NC(=O)c1nn(Cc2ccc(F)cc2)c2ccccc12)C(=O)NCC(=O)NCCO [Example 376] | 4.4 nM | 1.52 nM | – | –
5 | CCOC(=O)[C@H]1C[C@@H](NC(=O)[C@@H](NC(=O)c2nn(Cc3ccc(F)cc3)c3ccccc23)C(C)(C)C)C1 [Example 381] | – | – | 26.9 nM | 15.3 nM
6 | CC(C)NS(=O)(=O)CCNC(=O)[C@@H](NC(=O)c1nn(Cc2ccc(F)cc2)c2ccccc12)C(C)(C)C [Example 395] | – | – | 30.8 nM | 41.2 nM
7 | CC(C)(C)[C@H](NC(=O)c1nn(Cc2ccc(F)cc2)c2ccccc12)C(=O)N[C@H]1C[C@@H](C(N)=O)C1 [Example 398] | 26.6 nM | 5.8 nM | – | –
8 | CC(C)(C)[C@H](NC(=O)c1nn(Cc2ccc(F)cc2)c2ccccc12)C(=O)NCCS(=O)(=O)NCC1CC1 [Example 400] | – | – | 28.1 nM | 12.3 nM
9 | CC(C)(C)[C@H](NC(=O)c1nn(Cc2ccc(F)cc2)c2ccccc12)C(=O)NCC1CCC(=O)N1 (stereo partly drawn) [Example 404] | 38.2 nM | 13.1 nM | – | –
10 | CN1CC(CNC(=O)[C@@H](NC(=O)c2nn(Cc3ccc(F)cc3)c3ccccc23)C(C)(C)C)CC1=O (stereo partly drawn) [Example 411] | – | – | 21.3 nM | 3.73 nM
11 | CC(C)(C)[C@H](NC(=O)c1nn(Cc2ccc(F)cc2)c2ccccc12)C(=O)NCc1n[nH]c(C2CC2)n1 [Example 413] | – | – | 52 nM | 14 nM
12 | CC(C)(C)[C@H](NC(=O)c1nn(Cc2ccc(F)cc2)c2ccccc12)C(=O)NCc1n[nH]c(-c2ccccc2)n1 [Example 414] | – | – | 38.6 nM | 7.61 nM
13 | CC(C)(C)[C@H](NC(=O)c1nn(Cc2ccc(F)cc2)c2ccccc12)C(=O)NCc1nc2n(n1)CCC2 [Example 415] | – | – | 10.8 nM | 8.69 nM
14 | Cn1nc(CNC(=O)[C@@H](NC(=O)c2nn(Cc3ccc(F)cc3)c3ccccc23)C(C)(C)C)cc1C1CCC1 [Example 416] | – | – | 47.1 nM | 9.26 nM
15 | CC(C)(C)[C@H](NC(=O)c1nn(Cc2ccc(F)cc2)c2ccccc12)C(=O)NCc1cnn2cccnc12 [Example 417] | – | – | 25.7 nM | 7.84 nM
16 | CC(C)(C)[C@H](NC(=O)c1nn(Cc2ccc(F)cc2)c2ccccc12)C(=O)NCc1nc(-c2cnccn2)no1 [Example 418] | – | – | 4.07 nM | 0.78 nM
17 | CC(C)(C)[C@H](NC(=O)c1nn(Cc2ccc(F)cc2)c2ccccc12)C(=O)NCc1cc(C2CCC2)[nH]n1 [Example 420] | – | – | 43.7 nM | 11.2 nM
18 | Cc1nc(CNC(=O)[C@@H](NC(=O)c2nn(Cc3ccc(F)cc3)c3ccccc23)C(C)(C)C)nn1C [Example 421] | – | – | 17.2 nM | 2.88 nM
19 | CC(C)(C)[C@H](NC(=O)c1nn(Cc2ccc(F)cc2)c2ccccc12)C(=O)NCc1cc(C2CC2)[nH]n1 [Example 422] | – | – | 19.6 nM | 4.67 nM
20 | Cn1cc(CNC(=O)[C@@H](NC(=O)c2nn(Cc3ccc(F)cc3)c3ccccc23)C(C)(C)C)cn1 [Example 423] | 30.8 nM | 5.19 nM | – | –
21 | CC(C)(C)[C@H](NC(=O)c1nn(Cc2ccc(F)cc2)c2ccccc12)C(=O)NCc1nc(-c2ccccn2)no1 [Example 424] | – | – | 10.2 nM | 1.28 nM
22 | Cc1cc(CNC(=O)[C@@H](NC(=O)c2nn(Cc3ccc(F)cc3)c3ccccc23)C(C)(C)C)no1 [Example 425] | 3.36 nM | 0.92 nM | – | –
23 | CC(C)(C)[C@H](NC(=O)c1nn(Cc2ccc(F)cc2)c2ccccc12)C(=O)NCc1cnn(-c2ccccc2)n1 [Example 427] | – | – | 50.5 nM | 15 nM
24 | CC(C)(C)[C@H](NC(=O)c1nn(Cc2ccc(F)cc2)c2ccc(Cl)cc12)C(=O)NCCS(N)(=O)=O [Example 432] | 101 nM | 15.7 nM | – | –
25 | CC(C)(C)[C@H](NC(=O)c1nn(Cc2ccc(F)cc2)c2ccc(Cl)cc12)C(=O)NC1CCC1 [Example 438] | 20 nM | 10.9 nM | – | –
26 | CC(C)(C)[C@H](NC(=O)c1nn(Cc2ccc(C#N)cc2)c2c(F)cccc12)C(=O)N[C@@H]1CNC(=O)C1 [Example 457] | 108 nM | 1.77 nM | – | –
27 | CC(C)(C)[C@H](NC(=O)c1nn(Cc2ccc(F)cc2)c2ccccc12)C(=O)N[C@@H]1CNC(=O)C1 [Example 459] | 17.7 nM | 2.78 nM | – | –
